For the data set, the target named is T1, CYP1A2 (Homo sapiens, UniProt P05177).
T1 sequence (P05177 1-516): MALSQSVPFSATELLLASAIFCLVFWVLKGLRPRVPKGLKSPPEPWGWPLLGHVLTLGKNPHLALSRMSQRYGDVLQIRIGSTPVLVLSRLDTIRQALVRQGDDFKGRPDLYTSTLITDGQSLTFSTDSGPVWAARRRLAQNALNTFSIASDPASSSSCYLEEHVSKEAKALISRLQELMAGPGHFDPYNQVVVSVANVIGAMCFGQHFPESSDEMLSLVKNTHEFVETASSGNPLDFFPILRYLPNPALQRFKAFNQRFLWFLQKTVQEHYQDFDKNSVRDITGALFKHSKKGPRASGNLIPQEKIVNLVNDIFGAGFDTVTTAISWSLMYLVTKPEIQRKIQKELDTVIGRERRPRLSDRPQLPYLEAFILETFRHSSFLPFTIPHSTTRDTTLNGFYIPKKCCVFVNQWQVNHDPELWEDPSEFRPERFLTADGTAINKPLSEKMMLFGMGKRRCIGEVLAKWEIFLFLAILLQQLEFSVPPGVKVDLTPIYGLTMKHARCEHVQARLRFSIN
Description: in vitro. It is filed as biochemical.

Where [1] appears, read: human, recombinant enzyme, pH 7.4.
Setting [2] is: recombinant enzyme, pH 7.4, 1 μM active ingredient, Rh CYP1A2-mediated phenacetin O-deethylation, test dataset of 202 herb ingredients, read-out: % of Control Indication Activity (Mean).
Where [3] appears, read: 1 μM active ingredient, Rh CYP1A2-mediated phenacetin O-deethylation, test dataset of 202 herb ingredients.
Setting [4] is: human, recombinant human CYP1A2, pH 7.4, probe phenacetin (25 μM), O-deethylation to acetaminophen, 1 μM active ingredient, Rh CYP1A2-mediated phenacetin O-deethylation, test dataset of 202 herb ingredients, read-out: % of Control Indication Activity (Mean).

Read-outs that look alike come from different tables or passages of the source.
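Note: recombinant CYP1A2 incubated for 1 h at 37 °C, with the reaction started by an NADPH-generating system.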

Description: A total of 18 candidate compounds selected by pharmacophore and docking were examined for their potential to inhibit rhCYP1A2 phenacetin O-deethylation activity at a test concentration of 1 μM.
The basic incubation medium contained 100 mM potassium phosphate buffer (PH 7.4), 50 pmol recombinant human CYP1A2, 25 μM phenacetin and 1 μM active ingredients. The final incubation volume was 200 μL. After 5 min pre-incubation at 37 °C, the reaction was initiated by the addition of NADPH-generating system (5 mM MgCl2, 10 mM glucose 6-phosphates, 1 mM NADPH, and 2.5 U per mL glucose 6-phosphate dehydrogenase). Incubations were performed in a 37 °C shaking water bath for 1 h. Reactions were stopped by adding 0.4 mL of ice-cold acetonitrile containing 0.2 mg/L tinidazole (IS). […] The column was maintained at 35 °C and the injection volume was 10 μL.

On to `COc1ccc([C@@H]2CC(=O)c3c(O)cc(O[C@@H]4O[C@H](CO[C@@H]5O[C@@H](C)[C@H](O)[C@@H](O)[C@H]5O)[C@@H](O)[C@H](O)[C@H]4O)cc3O2)cc1O` [Hesperidin], for which, where the note is “recombinant enzyme”, the “% of Control Indication Activity (Mean)” value is above 90.
For `C=CCc1ccc(O)c(-c2ccc(O)c(CC=C)c2)c1` [Honokiol], the activity at 1 h, 1 μM under setting [1] turned out to be 33.6%.
Consider `COC[C@@]12CC[C@H](OC)[C@]34C(C([C@H](OC)[C@H]13)[C@]1(OC(C)=O)[C@H]3[C@@H](OC(=O)c5ccccc5)[C@](O)(C[C@H]34)[C@@H](OC)[C@@H]1O)N(C)C2` [Hypaconitine], for which the activity under setting [2] is above 90%.
On to `O=c1c(O[C@@H]2O[C@H](CO)[C@H](O)[C@H](O)[C@H]2O)c(-c2ccc(O)c(O)c2)oc2cc(O)cc(O)c12` [Hyperoside], for which, under setting [1], the activity at 1 h, 1 μM is above 90%.
Consider `COc1ccc(-c2oc3c(CC=C(C)C)c(O[C@@H]4O[C@H](CO)[C@@H](O)[C@H](O)[C@H]4O)cc(O)c3c(=O)c2O)cc1` [Icariside I], for which the “% of Control Indication Activity (Mean)” value under setting [3] was above 90%.
With `COc1ccc(-c2oc3c(CC=C(C)C)c(O)cc(O)c3c(=O)c2O)cc1` [Icaritin], the activity at 1 h, 1 μM under setting [1] was above 90%.
As to `CC(C)=CCOc1c2occc2cc2ccc(=O)oc12` [Imperatorin], under setting [2], the activity was above 90%.
Consider `O=C1/C(=C2\Nc3ccccc3C2=O)Nc2ccccc21` [Indigo], for which, under setting [4], the activity at 1 h, 1 μM was above 90%.
Turning to `O=C1Nc2ccccc2/C1=C1/Nc2ccccc2C1=O` [Indirubin], the activity at 1 h, 1 μM under setting [4] was above 90%.
The same measure, in the same setting: to `COc1cc(-c2coc3cc4c(c(OC)c3c2=O)OCO4)cc(OC)c1OC` [Irisflorentin] belongs above 90%; to `COc1ccc(/C=C/C(=O)O)cc1O` [Isoferulic acid], above 90%.
`COc1cc2ccc(=O)oc2c(OC)c1O` [Isofraxidin]: the “% of Control Indication Activity (Mean)” value (recombinant enzyme) is above 90.
With `O=c1ccc2ccc3occc3c2o1` [Isopsoralen], the activity at 1 h, 1 μM under setting [2] is above 90%.
With `COc1cc(-c2oc3cc(O)cc(O)c3c(=O)c2O)ccc1O` [Isorhamnetin], the activity under setting [2] was above 90%.
On to `COc1cc2c(cc1O)CC[n+]1cc3c(OC)c(OC)ccc3cc1-2.[Cl-]` [Jatrorrhizine Hydrochloride], for which, under setting [3], the “% of Control Indication Activity (Mean)” value is listed as above 90%.
For `CC1=C2C(=O)[C@H]3[C@@H](CC=C4C[C@@H](O)CC[C@@]43C)[C@@H]2CC[C@]12O[C@@H]1C[C@H](C)CN[C@H]1[C@H]2C` [Jervine], the activity at 1 h, 1 μM under setting [2] is above 90%.
Turning to `C[C@@]1(CO)C[C@@H](O)C[C@@]2(C)[C@@H]3CC[C@](C)([C@@H](O)CO)C=C3CC[C@H]12` [Kirenol], the activity at 1 h, 1 μM under setting [4] was above 90%.
In the case of `COc1cc2c(cc1OC)[C@@H](Cc1ccc(O)c(Oc3cc4c(cc3OC)CCN(C)[C@@H]4Cc3ccc(O)cc3)c1)N(C)CC2` [Liensinine], the “% of Control Indication Activity (Mean)” value under setting [3] is above 90%.
`COc1ccc(-c2cc(=O)c3c(O)cc(O[C@@H]4O[C@H](CO[C@@H]5O[C@@H](C)[C@H](O)[C@@H](O)[C@H]5O)[C@@H](O)[C@H](O)[C@H]4O)cc3o2)cc1` [Linarin]: under setting [3], the “% of Control Indication Activity (Mean)” value is listed as above 90%.
For `C/C1=C\CC[C@]23O[C@H]2[C@@H](OC3=O)c2c(C)coc2C1` [Linderane], the activity at 1 h, 1 μM under setting [4] was above 90%.
Consider `O=C1C[C@@H](c2ccc(O[C@@H]3O[C@H](CO)[C@@H](O)[C@H](O)[C@H]3O)cc2)Oc2cc(O)ccc21` [Liquiritin], for which the activity at 1 h, 1 μM under setting [1] is above 90%.
For the compound `COC(=O)C1=CO[C@@H](O[C@@H]2O[C@H](CO)[C@@H](O)[C@H](O)[C@H]2O)[C@@H]2[C@@H](C)[C@@H](O)C[C@H]12` [Loganin], the activity at 1 h, 1 μM under setting [4] is above 90%.
Same read-out and setting: under `O=c1cc(-c2ccc(O)c(O)c2)oc2cc(O)cc(O)c12` [Luteolin] stands 87.4%.
Consider `C=CCc1ccc(O)c(-c2cc(CC=C)ccc2O)c1` [Magnolol], for which the activity under setting [2] is above 90%.
For the compound `O=C1CCC[C@@H]2[C@H]3CCCN4CCC[C@@H](CN12)[C@@H]34` [Matrine], the activity under setting [2] is above 90%.
For `CC1CCC(C(C)C)C(O)C1` (stereo not shown) [Menthol], the activity at 1 h, 1 μM under setting [4] is above 90%.
`COC[C@]12CN(C)[C@@H]3[C@@H]4[C@H](OC)[C@H]1[C@@]3([C@@H](OC)C[C@H]2O)[C@@H]1C[C@@]2(O)[C@H](OC(=O)c3ccccc3)[C@@H]1[C@]4(OC(C)=O)[C@@H](O)[C@@H]2OC` [Mesaconitine]: the “% of Control Indication Activity (Mean)” value under setting [3] was above 90%.
With `CCCCCCCCCC(C)=O` [Methyl nonylketone], the activity under setting [2] is above 90%.
`COC(=O)c1c2c(c3ccccc3c1O)OC(C)(C)C=C2` [Mollugin]: the activity at 1 h, 1 μM under setting [1] was above 90%.
Take `CC1(C)CC[C@]2(C(=O)O)CC[C@]3(C)C(=CC[C@@H]4[C@@]5(C)CC[C@H](O[C@@H]6O[C@H](C(=O)O)[C@@H](O)[C@H](O[C@@H]7OC[C@@H](O)[C@H](O)[C@H]7O)[C@H]6O)C(C)(C)[C@@H]5CC[C@]43C)[C@@H]2C1` [Momordin Ic]: the “% of Control Indication Activity (Mean)” value (recombinant enzyme) is recorded as above 90.
In the case of `C[C@@H]1CCCCCCCCCCCCC(=O)C1` [Muscone], the “% of Control Indication Activity (Mean)” value under setting [3] is above 90%.
For the compound `C[C@@H]1O[C@@H](O[C@H]2[C@H](Oc3cc(O)c4c(c3)O[C@H](c3ccc(O)cc3)CC4=O)O[C@H](CO)[C@@H](O)[C@@H]2O)[C@H](O)[C@H](O)[C@H]1O` [Naringin], the activity at 1 h, 1 μM under setting [1] is above 90%.
Regarding `COc1cc2c[n+](C)c3c4cc5c(cc4ccc3c2cc1OC)OCO5` [Nitidine], the activity at 1 h, 1 μM (human, recombinant enzyme, pH 7.4, 1 μM active ingredient, Rh CYP1A2-mediated phenacetin O-deethylation, test dataset of 202 herb ingredients, read-out: % of Control Indication Activity (Mean)) is above 90%.
In the case of `CC(C)=CCC[C@](C)(O[C@@H]1O[C@H](CO)[C@@H](O)[C@H](O)[C@H]1O)[C@H]1CC[C@]2(C)[C@@H]1[C@H](O)C[C@@H]1[C@@]3(C)CC[C@H](O)C(C)(C)[C@@H]3[C@@H](O[C@@H]3O[C@H](CO)[C@@H](O)[C@H](O)[C@H]3O[C@@H]3OC[C@@H](O)[C@H](O)[C@H]3O)C[C@]12C` [Notoginsenoside R1], the “% of Control Indication Activity (Mean)” value under setting [3] is given as above 90%.
Take `COc1cc2c3c(c1OC)-c1ccccc1C[C@H]3N(C)CC2` [Nuciferine]: under setting [2], the activity turned out to be 85.5%.
For the compound `CC1(C)CC[C@]2(C(=O)O)CC[C@]3(C)C(=CC[C@@H]4[C@@]5(C)CC[C@H](O)C(C)(C)[C@@H]5CC[C@]43C)[C@@H]2C1` [Oleanol ic acid], the activity at 1 h, 1 μM under setting [2] was above 90%.
Regarding `C=C1C(=O)[C@]23[C@H](O)[C@H]1CC[C@H]2[C@@]12CO[C@]3(O)[C@@H](O)[C@@H]1C(C)(C)CC[C@@H]2O` [Oridonin], the activity at 1 h, 1 μM under setting [4] is above 90%.
Turning to `COc1ccc2ccc(=O)oc2c1CC=C(C)C` [Osthole], the activity at 1 h, 1 μM under setting [1] came out at 86.8%.
On to `C[C@@]12C[C@@]3(O)O[C@@H](O1)[C@]1(COC(=O)c4ccccc4)[C@H]3C[C@@]12O[C@@H]1O[C@H](CO)[C@@H](O)[C@H](O)[C@H]1O` [Paeoniflorin], for which the activity at 1 h, 1 μM under setting [4] is above 90%.
`COc1cc2c(cc1OC)-c1cc3ccc(OC)c(OC)c3c[n+]1CC2.[Cl-]` [Palmatine Hydrochloride]: the “% of Control Indication Activity (Mean)” value (recombinant enzyme) is above 90.
With `C[C@H]1CC[C@@]2(O)C(C)(C)[C@@H]3CC[C@@]2(C)[C@H]1C3` [Patchouli alcohol], the “% of Control Indication Activity (Mean)” value under setting [3] was above 90%.
For the compound `COc1ccc(-c2cc(=O)c3c(O)c(OC)c(O[C@@H]4O[C@H](CO[C@@H]5O[C@@H](C)[C@H](O)[C@@H](O)[C@H]5O)[C@@H](O)[C@H](O)[C@H]4O)cc3o2)cc1` [Pectolinarin], the activity at 1 h, 1 μM under setting [4] is above 90%.
In the case of `COc1cc(O)c2c(c1)C(=O)c1cc(C)cc(O)c1C2=O` [Physcion], under setting [4], the activity at 1 h, 1 μM is above 90%.

Values taken from PMC3116189, “Novel Natural Inhibitors of CYP1A2 Identified by in Silico and in Vitro Screening” (International Journal of Molecular Sciences, 2011).
